The source of these data is ChEMBL document CHEMBL1781891, “An efficient preparation of N-alkyl-2-benzazepine derivatives and investigation of their biological activity” (Bioorg Med Chem Lett, 2009).

Calls of active or inactive are those of the source. The rule behind the calls is not given here.

In the assay the test system is HaCaT. The assay can be described thus: Induction of cell migration in human HaCaT cells at 30 uM by in vitro wound healing assay. It is filed as functional, cell-based.
Take `CCCCN1Cc2cc(OC)ccc2CC(C)C1=O` (stereo not drawn): the outcome was inactive.
The result for `COc1ccc2c(c1)CNC(=O)C(C)C2` (stereo not drawn) reads “Active”.
Then `COc1ccc2c(c1)CN(Cc1ccccc1)C(=O)C(C)C2` (stereo not drawn), with “inactive”.
Then `COc1ccc2c(c1)CN(C)C(=O)C(C)C2` (stereo not drawn), with “Active”.
Consider `CCCN1Cc2cc(OC)ccc2CC(C)C1=O` (stereo not drawn), for which the result was inactive.
Then `CCCCCN1Cc2cc(OC)ccc2CC(C)C1=O` (stereo not drawn), with “inactive”; and `CCN1Cc2cc(OC)ccc2CC(C)C1=O` (stereo not drawn), with “Active”.
Then `COc1ccc2c(c1)CN(C(C)C)C(=O)C(C)C2` (stereo not drawn), with “inactive”.
